In patent US20100092526A1, “NANOEMULSION THERAPEUTIC COMPOSITIONS AND METHODS OF USING THE SAME” (NanoBio Corporation, priority 2008, published 2010):
Values after ≈ are worked out from the molar mass of the structure shown. Values joined by “and” are separate entries in the source; they are usually repeats but may differ in a detail not shown here. Equal values may be shown once. Read-outs that look alike come from different tables or passages of the source.

Experiments:
Assay type in all cases: cell-based
[1] = system: Stenotrophomonas maltophilia; experiment: MIC/MBC of nanoemulsions against gram-negative isolates (CLSI, alamar blue); details: for MIC50: Stenotrophomonas maltophilia (n = 5), nanoemulsions in the presence of 5 mM EDTA
[2] = system: Acinetobacter baumannii; experiment: as above; details: for % resistant / % susceptible / MIC50: Acinetobacter baumannii (n = 5); for MIC50: nanoemulsions in the presence of 5 mM EDTA
[3] = system: methicillin-resistant Staphylococcus aureus (MRSA); experiment: Susceptibility (MIC/MBC) of MRSA clinical isolates; details: for MBC50(15) / MIC50(15) / MBC90(26) / MIC90(26): 29 MRSA clinical isolates; for MBC50(15) / MIC50(15): rank 15; for MBC90(26) / MIC90(26): rank 26
[4] = system: Haemophilus influenzae; experiment: Susceptibility (MIC/MBC) of H. influenzae clinical isolates; details: for MIC / MIC90: Haemophilus influenzae; for MIC90 / MIC Range: H. influenzae isolates of Table 6
[5] = system: Klebsiella pneumoniae; experiment: MIC/MBC of nanoemulsions against gram-negative isolates (CLSI, alamar blue); details: Klebsiella pneumoniae (n = 5); for MIC50 / MIC Range: nanoemulsions in the presence of 5 mM EDTA; for MIC Range: in µg/mL
[6] = system: Proteus mirabilis; experiment: as above; details: Proteus mirabilis (n = 5); for MIC50 / MIC Range: nanoemulsions in the presence of 5 mM EDTA
[7] = system: Escherichia coli; experiment: as above; details: Escherichia coli (n = 5)
[8] = system: Burkholderia cepacia; experiment: as above; details: Burkholderia cepacia (n = 5), nanoemulsions in the presence of 5 mM EDTA; for MIC Range: in µg/mL
[9] = system: Pseudomonas aeruginosa; experiment: as above; details: Pseudomonas aeruginosa (n = 5); for MIC50 / MIC Range: nanoemulsions in the presence of 5 mM EDTA
[10] = individual MRSA clinical isolates, values listed by rank order 1-29
[11] = strain 30, nanoemulsion values as μg CPC/ml or μg BA/ml
[12] = strain 32, nanoemulsion values as μg CPC/ml or μg BA/ml
[13] = strain 33, nanoemulsion values as μg CPC/ml or μg BA/ml
[14] = strain 34, nanoemulsion values as μg CPC/ml or μg BA/ml
[15] = strain 35, nanoemulsion values as μg CPC/ml or μg BA/ml
[16] = strain 36, nanoemulsion values as μg CPC/ml or μg BA/ml
[17] = strain 37, nanoemulsion values as μg CPC/ml or μg BA/ml
[18] = strain 38, nanoemulsion values as μg CPC/ml or μg BA/ml
[19] = strain 41, nanoemulsion values as μg CPC/ml or μg BA/ml
[20] = strain 42, nanoemulsion values as μg CPC/ml or μg BA/ml
[21] = strain 49247, nanoemulsion values as μg CPC/ml (P4075EC, W205EC) or μg BA/ml (W205GBA2)
[22] = nanoemulsion values as μg CPC/ml or μg BA/ml
[23] = Staphylococcus aureus, MRSA isolates, read-out: MIC90
[24] = silver nitrate column, individual MRSA clinical isolates by rank order 1-29
[25] = nanoemulsions in the presence of 5 mM EDTA

Molecule: O=C(O)CN(CCN(CC(=O)O)CC(=O)O)CC(=O)O [EDTA, ethylenediaminetetraacetic acid]
- strains inhibited by EDTA alone ([1]; 5 isolates, 5 mM EDTA): 5 strains
- strains inhibited by EDTA alone ([2]; 5 isolates, 5 mM EDTA): 3 strains

Molecule: COc1cc(Cc2cnc(N)nc2N)cc(OC)c1OC [Trim]
- MBC50(15) [3]: 0.5 µg/mL (≈ 1.72 µM)
- MIC50(15) [3]: 0.125 µg/mL (≈ 0.431 µM)
- MBC90(26) [3]: >4 µg/mL
- MIC90(26) [3]: 0.5 µg/mL (≈ 1.72 µM)
- MBC [3, 10]: >64 μg/ml and >16 μg/ml (2×) and >4 μg/ml and >2 μg/ml (3×) and 4 μg/ml and 2 μg/ml (3×) and 1 μg/ml (2×) and 0.5 μg/ml (5×) and 0.25 μg/ml (6×) and 0.125 μg/ml (4×) and 0.0125 μg/ml
- MIC [3, 10]: >64 μg/ml and 1 μg/ml (2×) and 0.5 μg/ml and 0.25 μg/ml and 0.125 μg/ml (24×)

Molecule: CN[C@H](CC(C)C)C(=O)N[C@H]1C(=O)N[C@@H](CC(N)=O)C(=O)N[C@H]2C(=O)N[C@H]3C(=O)N[C@H](C(=O)N[C@H](C(=O)O)c4cc(O)cc(O)c4-c4cc3ccc4O)[C@H](O)c3ccc(c(Cl)c3)Oc3cc2cc(c3O[C@@H]2O[C@H](CO)[C@@H](O)[C@H](O)[C@H]2O[C@H]2C[C@](C)(N)[C@H](O)[C@H](C)O2)Oc2ccc(cc2Cl)[C@H]1O [Vanco]
- MBC50(15) [3]: 1 µg/mL (≈ 0.69 µM)
- MIC50(15) [3]: 1 µg/mL (≈ 0.69 µM)
- MBC90(26) [3]: 2 µg/mL (≈ 1.38 µM)
- MIC90(26) [3]: 1 µg/mL (≈ 0.69 µM)
- MBC [3, 10]: 4 μg/ml (3×) and 2 μg/ml (7×) and 1 μg/ml (16×) and 0.5 μg/ml (3×)
- MIC [3, 10]: 2 μg/ml and 1 μg/ml (20×) and 0.5 μg/ml (8×)

Molecule: CC1(C)S[C@@H]2[C@H](NC(=O)[C@H](N)c3ccccc3)C(=O)N2[C@H]1C(=O)O [ampicillin]
- MIC [4, 11]: 0.25 µg/mL (≈ 0.715 µM)
- MIC [4, 12]: 32 µg/mL (≈ 91.6 µM)
- MIC [4, 13]: 0.25 µg/mL (≈ 0.715 µM)
- MIC [4, 14]: > 32 µg/mL
- MIC [4, 15]: 0.25 µg/mL (≈ 0.715 µM)
- MIC [4, 16]: 0.125 µg/mL (≈ 0.358 µM)
- MIC [4, 17]: > 32 µg/mL
- MIC [4, 18]: 0.25 µg/mL (≈ 0.715 µM)
- MIC [4, 19]: > 32 µg/mL
- MIC [4, 20]: > 32 µg/mL
- MIC [4, 21]: 4 µg/mL (≈ 11.4 µM)
- MIC90 [4, 22]: > 32 µg/mL

Molecule: CC[C@H]1OC(=O)[C@H](C)[C@@H](O[C@H]2C[C@@](C)(OC)[C@@H](O)[C@H](C)O2)[C@H](C)[C@@H](O[C@@H]2O[C@H](C)C[C@H](N(C)C)[C@H]2O)[C@](C)(O)C[C@@H](C)CN(C)[C@H](C)[C@@H](O)[C@]1(C)O [azithromycin]
- susceptibility of the majority of isolates by MIC90 values ([4]; H. influenzae): susceptible
- MIC Range [4, 22]: 1 to 8 µg/mL
- MIC [4, 11]: 2 µg/mL (≈ 2.67 µM)
- MIC [4, 12]: 8 µg/mL (≈ 10.7 µM)
- MIC [4, 13]: 1 µg/mL (≈ 1.34 µM)
- MIC [4, 14]: 1 µg/mL (≈ 1.34 µM)
- MIC [4, 15]: 1 µg/mL (≈ 1.34 µM)
- MIC [4, 16]: 2 µg/mL (≈ 2.67 µM)
- MIC [4, 17]: 1 µg/mL (≈ 1.34 µM)
- MIC [4, 18]: 1 µg/mL (≈ 1.34 µM)
- MIC [4, 19]: 2 µg/mL (≈ 2.67 µM)
- MIC [4, 20]: 1 µg/mL (≈ 1.34 µM)
- MIC [4, 21]: 1 µg/mL (≈ 1.34 µM)
- MIC90 [4, 22]: 2 µg/mL (≈ 2.67 µM)

Molecule: CCC[C@@H]1C[C@@H](C(=O)N[C@@H]([C@H]2O[C@H](SC)[C@H](O)[C@@H](O)[C@H]2O)[C@H](C)Cl)N(C)C1 [clindamycin]
- MIC Range [4, 22]: 4 to 16 µg/mL
- MIC [4, 11]: 16 µg/mL (≈ 37.6 µM)
- MIC [4, 12]: 8 µg/mL (≈ 18.8 µM)
- MIC [4, 13]: 16 µg/mL (≈ 37.6 µM)
- MIC [4, 14]: 16 µg/mL (≈ 37.6 µM)
- MIC [4, 15]: 8 µg/mL (≈ 18.8 µM)
- MIC [4, 16]: 16 µg/mL (≈ 37.6 µM)
- MIC [4, 17]: 4 µg/mL (≈ 9.41 µM)
- MIC [4, 18]: 16 µg/mL (≈ 37.6 µM)
- MIC [4, 19]: 8 µg/mL (≈ 18.8 µM)
- MIC [4, 20]: 4 µg/mL (≈ 9.41 µM)
- MIC [4, 21]: 8 µg/mL (≈ 18.8 µM)
- MIC90 [4, 22]: 16 µg/mL (≈ 37.6 µM)
- MIC90 [3, 23]: > 64 µg/mL

Molecule: C[C@H]1c2cccc(O)c2C(=O)C2=C(O)[C@]3(O)C(=O)C(C(N)=O)=C(O)[C@@H](N(C)C)[C@@H]3[C@@H](O)[C@@H]21 [doxycycline]
- MIC90 [3, 23]: 4 µg/mL (≈ 9 µM)

Molecule: O=[N+]([O-])[O-].[Ag+] [silver nitrate]
- MIC90 ([3]; MRSA isolates): 0.00063%
- MBC50(15) ([3]; silver nitrate column): 0.0025 µg/mL
- MIC50(15) ([3]; silver nitrate column): 0.00031 µg/mL
- MBC90(26) ([3]; silver nitrate column): >0.01 µg/mL
- MIC90(26) ([3]; silver nitrate column): 0.00063 µg/mL
- MBC [3, 24]: 0.01 μg/ml and >0.01 μg/ml (3×) and >0.005 μg/ml (3×) and 0.005 μg/ml and 0.0025 μg/ml (12×) and 0.00125 μg/ml (9×)
- MIC [3, 24]: 0.0025 μg/ml and 0.00125 μg/ml (2×) and 0.00626 μg/ml (7×) and 0.00312 μg/ml (19×)

Molecule: Cc1cc(NS(=O)(=O)c2ccc(N)cc2)no1 [sulfamethoxazole]
- MIC90 [3, 23]: 4 µg/mL (≈ 15.8 µM)

Molecule: COc1cc(Cc2cnc(N)nc2N)cc(OC)c1OC [trimethoprim]
- MIC90 [3, 23]: 0.5 µg/mL (≈ 1.72 µM)

Molecule: CN[C@H](CC(C)C)C(=O)N[C@H]1C(=O)N[C@@H](CC(N)=O)C(=O)N[C@H]2C(=O)N[C@H]3C(=O)N[C@H](C(=O)N[C@H](C(=O)O)c4cc(O)cc(O)c4-c4cc3ccc4O)[C@H](O)c3ccc(c(Cl)c3)Oc3cc2cc(c3O[C@@H]2O[C@H](CO)[C@@H](O)[C@H](O)[C@H]2O[C@H]2C[C@](C)(N)[C@H](O)[C@H](C)O2)Oc2ccc(cc2Cl)[C@H]1O [vancomycin]
- cidality ([3]; MRSA, ratio of MBC90/MIC90): bactericidal (A compound or nanoemulsion is defined as bactericidal if its MBC/MIC ratio was ˜4)
- MIC90 ([3]; Staphylococcus aureus, MRSA): 1 µg/mL (≈ 0.69 µM)

Molecule: Gentamicin
- % resistant [5]: 0.0%
- % susceptible [5]: 100.0%
- MIC50 [5]: ≤ 2 µg/mL
- MIC Range [5]: <=2
- MIC50 [1]: > 8 µg/mL
- % resistant [6]: 0.0%
- % susceptible [6]: 100.0%
- MIC50 [6]: ≤ 2 µg/mL
- MIC Range ([6]; in µg/mL): <=2
- % resistant [7]: 20.0%
- % susceptible [7]: 80.0%
- MIC50 [7, 25]: ≤ 2 µg/mL
- MIC50 [8]: > 8 µg/mL
- MIC Range [8]: >8
- % resistant [9]: 0.0%
- % susceptible [9]: 100.0%
- MIC50 [9]: ≤ 2 µg/mL
- MIC Range [9]: <=2-4 ^
- % resistant [2]: 20.0%
- % susceptible [2]: 80.0%
- MIC50 [2]: ≤ 2 µg/mL

Molecule: Piperacillin/tazobactam
- % resistant [5]: 0.0%
- % susceptible [5]: 80.0%
- MIC50 [5]: 2 µg/mL
- MIC Range [5]: 1-64
- MIC50 [1]: > 64 µg/mL
- % resistant [6]: 0.0%
- % susceptible [6]: 100.0%
- MIC50 [6]: ≤ 0.5 µg/mL
- MIC Range [6]: <=0.5-1 ^
- % resistant [7]: 0.0%
- % susceptible [7]: 100.0%
- MIC50 [7, 25]: 2 µg/mL
- MIC Range ([7]; nanoemulsions in the presence of 5 mM EDTA, in µg/mL): 1-8
- MIC50 [8]: 4 µg/mL
- MIC Range [8]: 2-32
- % resistant [9]: 0.0%
- % susceptible [9]: 100.0%
- MIC50 [9]: 2 µg/mL
- MIC Range ([9]; in µg/mL): 2-16
- % resistant [2]: 20.0%
- % susceptible [2]: 80.0%
- MIC50 [2]: 2 µg/mL
